Laboratory results as given in US20220119354A1, “DIAMINO-SUBSTITUTED PYRIDINES AND PYRIMIDINES AS HERBICIDES” (FMC Corporation, priority 2019, published 2022).

Key:
Format in all cases: in vivo
[1] = system: corn (Zea mays); assay: Test A postemergence, corn; conditions: 0 to 100 scale, 0 no effect, 100 complete control
Procedure, shortened: (§1)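 Plants grown in a loam soil and sand blend were treated either preemergence by directed soil spray or postemergence when 2 to 10 cm tall (one- to two-leaf stage). Formulation: non-phytotoxic solvent mixture with surfactant. Greenhouse hold ~10 d, then visual injury assessment on a 0–100 scale.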

[2] = system: ryegrass, Italian (Lolium multiflorum); assay: Test A preemergence, Italian ryegrass; conditions: 0 to 100 scale, 0 is no effect, 100 is complete control
Procedure, shortened: as §1

[3] = system: sedge, umbrella (small-flower umbrella sedge, Cyperus difformis); assay: Test B flooded paddy test, umbrella sedge; conditions: Flood, 250 g ai/ha, applied to paddy water, 2-leaf stage, visual evaluation after 13 to 15 d
Procedure, shortened: (§2)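 Rating: 0 = no effect, 100 = complete control, visual, relative to untreated plants. Conditions: 2-leaf stage, 3 cm flood kept constant, compound put directly into water, 13–15 d greenhouse.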

[4] = system: wheat (Triticum aestivum); assay: Test A postemergence, wheat; conditions: 0 to 100 scale, 0 no effect, 100 complete control
Procedure, shortened: as §1

[5] = system: ryegrass, Italian (Lolium multiflorum); assay: Test A postemergence, Italian ryegrass; conditions: 0 to 100 scale, 0 no effect, 100 complete control
Procedure, shortened: as §1

[6] = system: ragweed (common ragweed, Ambrosia elatior); assay: Test A postemergence, ragweed; conditions: 0 to 100 scale, 0 no effect, 100 complete control
Procedure, shortened: as §1

[7] = system: blackgrass (Alopecurus myosuroides); assay: Test A postemergence, blackgrass; conditions: 0 to 100 scale, 0 no effect, 100 complete control
Procedure, shortened: as §1

[8] = system: foxtail, giant (Setaria faberii); assay: Test A postemergence, giant foxtail; conditions: 0 to 100 scale, 0 no effect, 100 complete control
Procedure, shortened: as §1

[9] = system: barnyardgrass (Echinochloa crus-galli); assay: Test B flooded paddy test, barnyardgrass; conditions: Flood, 250 g ai/ha, applied to paddy water, 2-leaf stage, visual evaluation after 13 to 15 d
Procedure, shortened: as §2

[10] = system: foxtail, giant (Setaria faberii); assay: Test A preemergence, giant foxtail; conditions: 0 to 100 scale, 0 is no effect, 100 is complete control
Procedure, shortened: as §1

[11] = system: barnyardgrass (Echinochloa crus-galli); assay: Test A postemergence, barnyardgrass; conditions: 0 to 100 scale, 0 no effect, 100 complete control
Procedure, shortened: as §1

[12] = system: kochia (Kochia scoparia); assay: Test A postemergence, kochia; conditions: 0 to 100 scale, 0 no effect, 100 complete control
Procedure, shortened: as §1

[13] = system: barnyardgrass (Echinochloa crus-galli); assay: Test A preemergence, barnyardgrass; conditions: 0 to 100 scale, 0 is no effect, 100 is complete control
Procedure, shortened: as §1

[14] = system: pigweed (Amaranthus retroflexus); assay: Test A preemergence, pigweed; conditions: 0 to 100 scale, 0 is no effect, 100 is complete control
Procedure, shortened: as §1

[15] = system: ragweed (common ragweed, Ambrosia elatior); assay: Test A preemergence, ragweed; conditions: 0 to 100 scale, 0 is no effect, 100 is complete control
Procedure, shortened: as §1

[16] = system: galium (catchweed bedstraw, Galium aparine); assay: Test A postemergence, galium; conditions: 0 to 100 scale, 0 no effect, 100 complete control
Procedure, shortened: as §1

[17] = system: rice (Oryza sativa); assay: Test B flooded paddy test, rice; conditions: Flood, 250 g ai/ha, applied to paddy water, 2-leaf stage, visual evaluation after 13 to 15 d
Procedure, shortened: as §2

[18] = system: pigweed (Amaranthus retroflexus); assay: Test A postemergence, pigweed; conditions: 0 to 100 scale, 0 no effect, 100 complete control
Procedure, shortened: as §1

[19] = system: kochia (Kochia scoparia); assay: Test A preemergence, kochia; conditions: 0 to 100 scale, 0 is no effect, 100 is complete control
Procedure, shortened: as §1

[20] = system: ducksalad (Heteranthera limosa); assay: Test B flooded paddy test, ducksalad; conditions: Flood, 250 g ai/ha, applied to paddy water, 2-leaf stage, visual evaluation after 13 to 15 d
Procedure, shortened: as §2

Nc1nc(NC(c2cc3ccccc3o2)C2CC2)ncc1C(F)(F)F (stereo not drawn) [Compound 88]
Plant response rating, Corn ([1]; 125 g ai/ha): 20
Plant response rating, Corn ([1]; 500 g ai/ha): 30
Ryegrass, Italian plant response rating ([2]; 125 g ai/ha): 50
Ryegrass, Italian plant response rating ([2]; 500 g ai/ha): 100
Plant response rating, Sedge, Umbrella (0 to 100 scale, 0 is no effect, 100 is complete control) [3]: 95
Plant response rating, Wheat ([4]; 125 g ai/ha): 0
Plant response rating, Wheat ([4]; 500 g ai/ha): 0
Plant response rating, Ryegrass, Italian ([5]; 125 g ai/ha): 50
Plant response rating, Ryegrass, Italian ([5]; 500 g ai/ha): 60
Plant response rating, Ragweed ([6]; 125 g ai/ha): 30
Plant response rating, Ragweed ([6]; 500 g ai/ha): 90
Plant response rating, Blackgrass ([7]; 125 g ai/ha): 50
Plant response rating, Blackgrass ([7]; 500 g ai/ha): 50
Plant response rating, Foxtail, Giant ([8]; 125 g ai/ha): 30
Plant response rating, Foxtail, Giant ([8]; 500 g ai/ha): 90
Plant response rating, Barnyardgrass (0 to 100 scale, 0 is no effect, 100 is complete control) [9]: 80
Foxtail, Giant plant response rating ([10]; 125 g ai/ha): 90
Foxtail, Giant plant response rating ([10]; 500 g ai/ha): 100
Plant response rating, Barnyardgrass ([11]; 125 g ai/ha): 10
Plant response rating, Barnyardgrass ([11]; 500 g ai/ha): 90
Plant response rating, Kochia ([12]; 125 g ai/ha): 90
Plant response rating, Kochia ([12]; 500 g ai/ha): 90
Barnyardgrass plant response rating ([13]; 125 g ai/ha): 70
Barnyardgrass plant response rating ([13]; 500 g ai/ha): 90
Pigweed plant response rating ([14]; 125 g ai/ha): 100
Pigweed plant response rating ([14]; 500 g ai/ha): 100
Ragweed plant response rating ([15]; 125 g ai/ha): 80
Ragweed plant response rating ([15]; 500 g ai/ha): 100
Plant response rating, Galium ([16]; 125 g ai/ha): 90
Plant response rating, Galium ([16]; 500 g ai/ha): 90
Plant response rating, Rice (0 to 100 scale, 0 is no effect, 100 is complete control) [17]: 0
Plant response rating, Pigweed ([18]; 125 g ai/ha): 100
Plant response rating, Pigweed ([18]; 500 g ai/ha): 100
Kochia plant response rating ([19]; 125 g ai/ha): 70
Kochia plant response rating ([19]; 500 g ai/ha): 100
Plant response rating, Ducksalad (0 to 100 scale, 0 is no effect, 100 is complete control) [20]: 65

C[C@@H](Nc1nc(N)c(C(F)(F)F)c(C(F)F)n1)c1cc2ccccc2o1 [Compound 111]
Plant response rating, Corn ([1]; 31 g ai/ha): 0
Plant response rating, Corn ([1]; 125 g ai/ha): 20
Ryegrass, Italian plant response rating ([2]; 31 g ai/ha): 0
Ryegrass, Italian plant response rating ([2]; 125 g ai/ha): 0
Plant response rating, Sedge, Umbrella (0 to 100 scale, 0 is no effect, 100 is complete control) [3]: 0
Plant response rating, Wheat ([4]; 31 g ai/ha): 0
Plant response rating, Wheat ([4]; 125 g ai/ha): 0
Plant response rating, Ryegrass, Italian ([5]; 31 g ai/ha): 0
Plant response rating, Ryegrass, Italian ([5]; 125 g ai/ha): 0
Plant response rating, Ragweed ([6]; 31 g ai/ha): 40
Plant response rating, Ragweed ([6]; 125 g ai/ha): 50
Plant response rating, Blackgrass ([7]; 31 g ai/ha): 0
Plant response rating, Blackgrass ([7]; 125 g ai/ha): 0
Plant response rating, Foxtail, Giant ([8]; 31 g ai/ha): 0
Plant response rating, Foxtail, Giant ([8]; 125 g ai/ha): 0
Plant response rating, Barnyardgrass (0 to 100 scale, 0 is no effect, 100 is complete control) [9]: 0
Foxtail, Giant plant response rating ([10]; 31 g ai/ha): 0
Foxtail, Giant plant response rating ([10]; 125 g ai/ha): 10
Plant response rating, Barnyardgrass ([11]; 31 g ai/ha): 10
Plant response rating, Barnyardgrass ([11]; 125 g ai/ha): 0
Plant response rating, Kochia ([12]; 31 g ai/ha): 0
Plant response rating, Kochia ([12]; 125 g ai/ha): 60
Barnyardgrass plant response rating ([13]; 31 g ai/ha): 0
Barnyardgrass plant response rating ([13]; 125 g ai/ha): 0
Pigweed plant response rating ([14]; 31 g ai/ha): 10
Pigweed plant response rating ([14]; 125 g ai/ha): 70
Ragweed plant response rating ([15]; 31 g ai/ha): 30
Ragweed plant response rating ([15]; 125 g ai/ha): 90
Plant response rating, Galium ([16]; 31 g ai/ha): 20
Plant response rating, Galium ([16]; 125 g ai/ha): 50
Plant response rating, Rice (0 to 100 scale, 0 is no effect, 100 is complete control) [17]: 0
Plant response rating, Pigweed ([18]; 31 g ai/ha): 50
Plant response rating, Pigweed ([18]; 125 g ai/ha): 80
Kochia plant response rating ([19]; 31 g ai/ha): 40
Kochia plant response rating ([19]; 125 g ai/ha): 70
Plant response rating, Ducksalad (0 to 100 scale, 0 is no effect, 100 is complete control) [20]: 0

C[C@@H](Nc1ncc(C(F)(F)F)c(N)n1)c1coc2cc(Cl)ccc12 [Compound 55]
Plant response rating, Corn ([1]; 125 g ai/ha): 10
Plant response rating, Corn ([1]; 500 g ai/ha): 0
Ryegrass, Italian plant response rating ([2]; 125 g ai/ha): 20
Ryegrass, Italian plant response rating ([2]; 500 g ai/ha): 70
Plant response rating, Sedge, Umbrella (0 to 100 scale, 0 is no effect, 100 is complete control) [3]: 98
Plant response rating, Wheat ([4]; 125 g ai/ha): 0
Plant response rating, Wheat ([4]; 500 g ai/ha): 0
Plant response rating, Ryegrass, Italian ([5]; 125 g ai/ha): 30
Plant response rating, Ryegrass, Italian ([5]; 500 g ai/ha): 30
Plant response rating, Ragweed ([6]; 125 g ai/ha): 50
Plant response rating, Ragweed ([6]; 500 g ai/ha): 80
Plant response rating, Blackgrass ([7]; 125 g ai/ha): 0
Plant response rating, Blackgrass ([7]; 500 g ai/ha): 20
Plant response rating, Foxtail, Giant ([8]; 125 g ai/ha): 20
Plant response rating, Foxtail, Giant ([8]; 500 g ai/ha): 90
Plant response rating, Barnyardgrass (0 to 100 scale, 0 is no effect, 100 is complete control) [9]: 30
Foxtail, Giant plant response rating ([10]; 125 g ai/ha): 50
Foxtail, Giant plant response rating ([10]; 500 g ai/ha): 90
Plant response rating, Barnyardgrass ([11]; 125 g ai/ha): 30
Plant response rating, Barnyardgrass ([11]; 500 g ai/ha): 70
Plant response rating, Kochia ([12]; 125 g ai/ha): 70
Plant response rating, Kochia ([12]; 500 g ai/ha): 90
Barnyardgrass plant response rating ([13]; 125 g ai/ha): 80
Barnyardgrass plant response rating ([13]; 500 g ai/ha): 80
Pigweed plant response rating ([14]; 125 g ai/ha): 80
Pigweed plant response rating ([14]; 500 g ai/ha): 100
Ragweed plant response rating ([15]; 125 g ai/ha): 100
Ragweed plant response rating ([15]; 500 g ai/ha): 100
Plant response rating, Galium ([16]; 125 g ai/ha): 70
Plant response rating, Galium ([16]; 500 g ai/ha): 90
Plant response rating, Rice (0 to 100 scale, 0 is no effect, 100 is complete control) [17]: 0
Plant response rating, Pigweed ([18]; 125 g ai/ha): 100
Plant response rating, Pigweed ([18]; 500 g ai/ha): 100
Kochia plant response rating ([19]; 125 g ai/ha): 40
Kochia plant response rating ([19]; 500 g ai/ha): 90
Plant response rating, Ducksalad (0 to 100 scale, 0 is no effect, 100 is complete control) [20]: 70
